Experimental data taken from patent US20250144067A1, “PERSONALIZED STARVATION THERAPY FOR CANCER” (Faeth Therapeutics, Inc., priority 2021, published 2025).
Where a name gives a salt, the structure may show the parent alone.

What was measured:
[1] = tested on: NCI-H292 lung cancer cells; assay: FDA drug screening, complete media vs cholesterol-free media with simvastatin (TABLE 2); assay type: cell-based, human; conditions: for Cholesterol-free media + simvastatin (0.04 μM) / Complete Media: NCI-H292 cells
[2] = tested on: NCI-H292 lung cancer cells; assay: FDA drug screening, complete media vs cholesterol-free media without statin (TABLE 1); assay type: cell-based, human
[3] = drug in cholesterol-free media with simvastatin 0.04 μM
[4] = complete media vs cholesterol-free media + simvastatin (0.04 μM), >0 enhanced anti-cancer activity, about 0 neutral, <0 antagonist
[5] = NCI-H292 cells, cholesterol-free media without statin
[6] = complete vs cholesterol-free media, greater than 0 enhanced anti-cancer activity, about 0 neutral, below 0 antagonists
[7] = cholesterol-free media with simvastatin 0.04 μM, cell growth value in FDA drug screen
[8] = complete media, cell growth value in FDA drug screen
[9] = complete media minus cholesterol-free media + simvastatin, >0 enhanced anti-cancer activity, about 0 neutral, <0 antagonist
[10] = Complete minus Cholesterol-free, greater than 0 enhanced anti-cancer activity, about 0 neutral, below 0 antagonist
[11] = NCI-H292 cells, FDA drug library screen, cholesterol-free media without statin
[12] = NCI-H292 cells, FDA drug library screen, complete media
[13] = FDA drug library screen, cholesterol-free media with simvastatin 0.04 μM
[14] = FDA drug library screen, complete media
[15] = Complete minus Cholesterol-free, >0 enhanced anti-cancer activity, about 0 neutral, <0 antagonist
[16] = NCI-H292 cells, cholesterol-free media without statin, FDA drug library screen
[17] = NCI-H292 cells, complete media, FDA drug library screen
[18] = complete vs cholesterol-free media, >0 enhanced anti-cancer activity, about 0 neutral, <0 antagonist
[19] = FDA library drug in complete media

SMILES	Difference [1, 4]	Cholesterol-free [2, 5]	Complete ([2]; NCI-H292 cells, complete media)	Difference [1, 9]	Cholesterol-free media + simvastatin (0.04 μM) [1, 13]	Complete Media [1, 14]	Difference [2, 15]	Cholesterol-free [2, 16]	Complete [2, 17]	also measured
Cc1cnc(C(=O)NCCc2ccc(S(=O)(=O)NC(=O)NC3CCCCC3)cc2)cn1 [Glipizide]	−0.22	1.844	1.46							Cholesterol-free media + simvastatin (0.04 μM) [1, 3]: 1.42; Complete Media ([1]; drug in complete media): 1.2; Difference [2, 6]: −0.38
O=C(NCC(O)CO)c1c(I)c(C(=O)NCC(O)CO)c(I)c(N(CCO)C(=O)CO)c1I (centres unmarked) [Ioversol]				0.09						Cholesterol-free media + simvastatin (0.04 μM) [1, 7]: 1.012; Complete Media [1, 8]: 1.097; Difference [2, 10]: −0.10; Cholesterol-free [2, 11]: 1.162; Complete [2, 12]: 1.064
CCC1(C)CC(=O)NC1=O (centres unmarked) [Ethosuximide]	−0.14	1.124	0.884		1.133	0.9952	−0.24			
N=C(N)NC(=O)Cc1c(Cl)cccc1Cl [Guanfacine (hydrochloride)]				0.56	1.401	1.965		0.9809	1.601	Difference [2, 18]: 0.62
Cc1cc(=O)oc2cc(O)ccc12 [4-Methylumbelliferone]	−0.07				1.129	1.057		0.6739	1.119	Difference [2, 18]: 0.45
Cc1cnc(NC(=O)C2=C(O)c3ccccc3S(=O)(=O)N2C)s1 [Meloxicam]			0.7862	0.12						Cholesterol-free media + simvastatin (0.04 μM) [1, 7]: 1.111; Difference [2, 6]: −0.39
O=S(=O)([O-])c1cc(O)ccc1O.O=S(=O)([O-])c1cc(O)ccc1O.[Ca+2] [Calcium dobesilate]								1.325	1.418	Cholesterol-free media + simvastatin (0.04 μM) [1, 3]: 1.427; Complete Media ([1]; drug in complete media): 1.218; Difference ([1]; complete media vs cholesterol-free media + simvastatin (0.04 μM), […]): −0.21; Difference ([2]; complete vs cholesterol-free media, […]): 0.09
O=C(CO)[C@@H](O)[C@H](O)[C@H](O)CO [D-Fructose]	−0.23						0.05	1.151	1.203	Cholesterol-free media + simvastatin (0.04 μM) [1, 3]: 1.284; Complete Media ([1]; drug in complete media): 1.053
CC(=O)NC[C@H]1CN(c2ccc(N3CCOCC3)c(F)c2)C(=O)O1 [Linezolid]	−0.19						0.04	0.9483	0.9881	Cholesterol-free media + simvastatin (0.04 μM) [1, 3]: 1.38; Complete Media ([1]; drug in complete media): 1.187
CN(CCOc1ccc(CC2SC(=O)NC2=O)cc1)c1ccccn1.O=C(O)/C=C\C(=O)O (centres unmarked) [Rosiglitazone (maleate)]				0.05				1.107	1.422	Cholesterol-free media + simvastatin (0.04 μM) [1, 7]: 0.848; Complete Media [1, 8]: 0.8943; Difference [2, 18]: 0.32
CC(C)COCC(CN(Cc1ccccc1)c1ccccc1)N1CCCC1 (centres unmarked) [Bepridil hydrochloride]		1.009	0.8157	0.27	1.312	1.584	−0.19			
COC(=O)C1=C(C)NC(C)=C(C(=O)OCCN2CCN(C(c3ccccc3)c3ccccc3)CC2)C1c1cccc([N+](=O)[O-])c1 (centres unmarked) [Manidipine (dihydrochloride)]				0.03						Cholesterol-free media + simvastatin (0.04 μM) [1, 7]: 1.023; Complete Media [1, 8]: 1.051; Difference [2, 10]: −0.08; Cholesterol-free [2, 11]: 0.814; Complete [2, 12]: 0.7357
Oc1c(I)cc(Cl)c2cccnc12 [Clioquinol]	−0.16				1.168	1.009		0.6089		Difference [2, 18]: 0.57
CC1CCC(C(C)C)C(O)C1 (racemic) [DL-Menthol]		1.299	0.8907	0.16	0.8922	1.05				Difference [2, 6]: −0.41
O=C1c2c(O)cccc2Cc2cccc(O)c21 [Dithranol]		1.314	0.9897	0.08						Cholesterol-free media + simvastatin (0.04 μM) [1, 7]: 0.8476; Complete Media [1, 8]: 0.9249; Difference [2, 6]: −0.32
O=C(O)c1cc2ccccc2c(Cc2c(O)c(C(=O)O)cc3ccccc23)c1O.OCCOCCN1CCN(C(c2ccccc2)c2ccc(Cl)cc2)CC1 [Hydroxyzine (pamoate)]	−0.11				1.16	1.053		0.6403	0.9622	Difference [2, 18]: 0.32
O=C(O[C@@H]1C[C@@H]2C[C@H]3C[C@H](C1)N2CC3=O)c1c[nH]c2ccccc12 [Dolasetron (Mesylate hydrate)]		1.287	0.8444	0.51	1.31	1.817				Difference [2, 6]: −0.44
CC(=O)OCC(=O)[C@H]1CC[C@H]2[C@@H]3CCC4=CC(=O)CC[C@]4(C)[C@H]3CC[C@]12C [Deoxycorticosterone acetate]	−0.09				0.9825	0.8887		0.7412	1.214	Difference [2, 18]: 0.47
CCCN1CCCC[C@H]1C(=O)Nc1c(C)cccc1C [Ropivacaine]	−0.18	1.098	0.8949				−0.20			Cholesterol-free media + simvastatin (0.04 μM) [1, 3]: 0.9386; Complete Media ([1]; drug in complete media): 0.7628
CCCC(=O)O[C@]1(C(=O)CO)CC[C@H]2[C@@H]3CCC4=CC(=O)CC[C@]4(C)[C@H]3[C@@H](O)C[C@@]21C [Hydrocortisone 17-butyrate]				0.19	0.4747	0.6696	−0.03	1.162	1.133	
COc1ccc2cc([C@H](C)C(=O)O)ccc2c1 [Naproxen]		1.155	0.9257	0.08			−0.23			Cholesterol-free media + simvastatin (0.04 μM) [1, 7]: 0.9241; Complete Media [1, 8]: 1.007
CC1=C(/C=C/C(C)=C/C=C/C(C)=C/C=C/C=C(C)/C=C/C=C(C)/C=C/C2=C(C)CCCC2(C)C)C(C)(C)CCC1 [β-Carotene]	−0.31									Cholesterol-free media + simvastatin (0.04 μM) ([1]; FDA library drug in cholesterol-free media with simvastatin 0.04 μM): 0.923; Complete Media [1, 19]: 0.6081; Difference ([2]; Complete minus Cholesterol-free, greater than 0 enhanced anti-cancer activity, about 0 neutral, below 0 antagonists): −0.67; Cholesterol-free ([2]; NCI-H292 cells in cholesterol-free media without statin): 1.322; Complete ([2]; NCI-H292 cells in complete media): 0.6506
C[C@@H]1CC[C@H]2[C@@H](C)C(=O)O[C@@H]3O[C@@]4(C)CC[C@@H]1[C@]32OO4 [Artemisinin]	−0.76						−0.06	0.8489	0.7892	Complete Media [1, 19]: 0.8603
